Reference: PubChem BioAssay (NCI)
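48-hour exposure; five concentrations; linearly interpolated endpoints. TGI is the concentration that stops growth completely.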

Tests used:
Assay in all cases: growth of human tumour cells (NCI), 48 h
[1] = tested on: 786-0 renal
[2] = tested on: A498 renal
[3] = tested on: A549 NSCLC
[4] = tested on: ACHN renal
[5] = tested on: BT-549 breast
[6] = tested on: CAKI-1 renal
[7] = tested on: CCRF-CEM leukemia
[8] = tested on: COLO 205 colon
[9] = tested on: DLD-1 colon
[10] = tested on: DMS 114 small cell lung
[11] = tested on: DMS 273 small cell lung
[12] = tested on: DU-145 prostate
[13] = tested on: EKVX NSCLC
[14] = tested on: HCC-2998 colon
[15] = tested on: HCT-116 colon
[16] = tested on: HCT-15 colon
[17] = tested on: HL-60(TB) leukemia
[18] = tested on: HOP-18 NSCLC
[19] = tested on: HOP-62 NSCLC
[20] = tested on: HOP-92 NSCLC
[21] = tested on: HS 578T breast
[22] = tested on: HT29 colon
[23] = tested on: IGROV1 ovarian
[24] = tested on: K-562 leukemia
[25] = tested on: KM12 colon
[26] = tested on: KM20L2 colon
[27] = tested on: LOX IMVI melanoma
[28] = tested on: LXFL 529 NSCLC
[29] = tested on: M14 melanoma
[30] = tested on: MALME-3M melanoma
[31] = tested on: MCF7 breast
[32] = tested on: MDA-MB-231 breast
[33] = tested on: MDA-MB-435
[34] = tested on: MDA-N
[35] = tested on: MOLT-4 leukemia
[36] = tested on: NCI-H226 lung
[37] = tested on: NCI-H23 lung
[38] = tested on: NCI-H460 lung
[39] = tested on: NCI-H522 lung
[40] = tested on: NCI/ADR-RES ovarian
[41] = tested on: OVCAR-3 ovarian
[42] = tested on: OVCAR-4 ovarian
[43] = tested on: OVCAR-5 ovarian
[44] = tested on: OVCAR-8 ovarian
[45] = tested on: PC-3 prostate
[46] = tested on: RPMI-8226 leukemia
[47] = tested on: RXF 393 renal
[48] = tested on: SF-268 CNS
[49] = tested on: SF-295 CNS
[50] = tested on: SF-539 CNS
[51] = tested on: SK-MEL-2 melanoma
[52] = tested on: SK-MEL-28 melanoma
[53] = tested on: SK-MEL-5 melanoma
[54] = tested on: SK-OV-3 ovarian
[55] = tested on: SN12C renal
[56] = tested on: SNB-19 CNS
[57] = tested on: SNB-75 CNS
[58] = tested on: SNB-78 CNS
[59] = tested on: SR leukemia
[60] = tested on: SW-620 colon
[61] = tested on: T-47D breast
[62] = tested on: TK-10 renal
[63] = tested on: U251 CNS
[64] = tested on: UACC-257 melanoma
[65] = tested on: UACC-62 melanoma
[66] = tested on: UO-31 renal
[67] = tested on: M19-MEL melanoma

## Cc1ccc2[nH]c3c(C)c4cc[n+](C)cc4c(C)c3c2c1
[1]
  TGI: 2.75 µM
[2]
  TGI: 4.53 µM
[3]
  TGI: 4.28 µM
[4]
  TGI: 57.9 µM
[5]
  TGI: 3.05 µM
[6]
  TGI: > 56.5 µM
[7]
  TGI: 40.3 µM
[8]
  TGI: 5.05 µM
[9]
  TGI: 49.8 µM
[10]
  TGI: 2.73 µM
[11]
  TGI: 17.7 µM
[12]
  TGI: 33.5 µM
[13]
  TGI: 10.3 µM
[14]
  TGI: 10.1 µM
[15]
  TGI: 32.6 µM
[16]
  TGI: > 82.6 µM
[17]
  TGI: 29.8 µM
[18]
  TGI: > 58.5 µM
[19]
  TGI: 3.28 µM
[20]
  TGI: 33.7 µM
[21]
  TGI: 0.917 µM
[22]
  TGI: 41.6 µM
[23]
  TGI: 32.2 µM
[24]
  TGI: 63.4 µM
[25]
  TGI: 6.89 µM
[26]
  TGI: 71.3 µM
[27]
  TGI: 28.9 µM
[28]
  TGI: 5.01 µM
[29]
  TGI: 28.9 µM
[30]
  TGI: 4.38 µM
[31]
  TGI: > 23.8 µM
[32]
  TGI: > 44.7 µM
[33]
  TGI: 13.7 µM
[34]
  TGI: 22.1 µM
[35]
  TGI: 54.9 µM
[36]
  TGI: 3.24 µM
[37]
  TGI: 5.77 µM
[38]
  TGI: 40.7 µM
[39]
  TGI: 3.9 µM
[40]
  TGI: > 100 µM
[41]
  TGI: 19.2 µM
[42]
  TGI: 13.4 µM
[43]
  TGI: 77.1 µM
[44]
  TGI: 8.97 µM
[45]
  TGI: 7.63 µM
[46]
  TGI: > 59.7 µM
[47]
  TGI: 18.3 µM
[48]
  TGI: 1.77 µM
[49]
  TGI: 4.19 µM
[50]
  TGI: 2.73 µM
[51]
  TGI: 4.71 µM
[52]
  TGI: 8.48 µM
[53]
  TGI: 8.54 µM
[54]
  TGI: 50.2 µM
[55]
  TGI: 1.52 µM
[56]
  TGI: 2.53 µM
[57]
  TGI: 0.761 µM
[58]
  TGI: 4.82 µM
[59]
  TGI: 70.7 µM
[60]
  TGI: 12.2 µM
[61]
  TGI: 6.83 µM
[62]
  TGI: > 96.3 µM
[63]
  TGI: 2.11 µM
[64]
  TGI: 20.2 µM
[65]
  TGI: 16.4 µM
[66]
  TGI: 60.2 µM

## Cc1ccc(C)c(N2C(=O)C(=O)C(c3nc4ccccc4s3)C(=O)C2=O)c1
[1]
  TGI: > 100 µM
[2]
  TGI: > 100 µM
[3]
  TGI: > 100 µM
[4]
  TGI: > 100 µM
[6]
  TGI: > 100 µM
[7]
  TGI: > 100 µM
[8]
  TGI: > 100 µM
[9]
  TGI: > 100 µM
[10]
  TGI: > 100 µM
[11]
  TGI: > 100 µM
[13]
  TGI: > 100 µM
[14]
  TGI: > 100 µM
[15]
  TGI: > 100 µM
[16]
  TGI: > 100 µM
[17]
  TGI: > 100 µM
[19]
  TGI: > 100 µM
[20]
  TGI: > 100 µM
[22]
  TGI: > 100 µM
[23]
  TGI: > 100 µM
[24]
  TGI: > 100 µM
[25]
  TGI: > 100 µM
[26]
  TGI: > 100 µM
[27]
  TGI: > 100 µM
[28]
  TGI: > 100 µM
[29]
  TGI: > 100 µM
[67]
  TGI: > 100 µM
[30]
  TGI: > 100 µM
[35]
  TGI: > 100 µM
[36]
  TGI: > 100 µM
[37]
  TGI: > 100 µM
[38]
  TGI: > 100 µM
[39]
  TGI: > 100 µM
[41]
  TGI: > 100 µM
[42]
  TGI: > 100 µM
[43]
  TGI: > 100 µM
[44]
  TGI: > 100 µM
[46]
  TGI: > 100 µM
[47]
  TGI: > 100 µM
[48]
  TGI: > 100 µM
[49]
  TGI: > 100 µM
[50]
  TGI: > 100 µM
[51]
  TGI: > 100 µM
[52]
  TGI: > 100 µM
[53]
  TGI: > 100 µM
[54]
  TGI: > 100 µM
[55]
  TGI: > 100 µM
[56]
  TGI: > 100 µM
[57]
  TGI: > 100 µM
[58]
  TGI: > 100 µM
[60]
  TGI: > 100 µM
[62]
  TGI: > 100 µM
[63]
  TGI: > 100 µM
[64]
  TGI: > 100 µM
[65]
  TGI: > 100 µM
[66]
  TGI: > 100 µM

## Cc1cnc2cc(Cl)ccc2c1NCCN(CC(C)C)CC(C)C
[4]
  TGI: > 100 µM
[8]
  TGI: > 100 µM
[10]
  TGI: > 100 µM
[14]
  TGI: > 100 µM
[15]
  TGI: > 100 µM
[17]
  TGI: > 100 µM
[19]
  TGI: > 100 µM
[20]
  TGI: 85.3 µM
[22]
  TGI: > 100 µM
[23]
  TGI: > 100 µM
[25]
  TGI: > 100 µM
[26]
  TGI: > 100 µM
[28]
  TGI: > 100 µM
[29]
  TGI: > 100 µM
[67]
  TGI: > 100 µM
[35]
  TGI: > 100 µM
[37]
  TGI: > 100 µM
[38]
  TGI: > 100 µM
[39]
  TGI: > 100 µM
[41]
  TGI: > 100 µM
[42]
  TGI: > 100 µM
[43]
  TGI: > 100 µM
[46]
  TGI: > 100 µM
[48]
  TGI: > 100 µM
[49]
  TGI: > 100 µM
[50]
  TGI: > 100 µM
[51]
  TGI: > 100 µM
[52]
  TGI: > 100 µM
[54]
  TGI: > 100 µM
[57]
  TGI: > 100 µM
[58]
  TGI: > 100 µM
[59]
  TGI: > 100 µM
[63]
  TGI: > 100 µM
[64]
  TGI: > 100 µM
[65]
  TGI: > 100 µM
[66]
  TGI: > 100 µM

## N#CC(NNC(=O)Cc1ccccc1)c1ccc(O)cc1 (configuration not stated)
[1]
  TGI: > 100 µM
[3]
  TGI: > 100 µM
[4]
  TGI: > 100 µM
[6]
  TGI: > 100 µM
[7]
  TGI: > 100 µM
[8]
  TGI: > 100 µM
[9]
  TGI: > 100 µM
[10]
  TGI: > 100 µM
[11]
  TGI: > 100 µM
[15]
  TGI: > 100 µM
[16]
  TGI: > 100 µM
[17]
  TGI: > 100 µM
[18]
  TGI: > 100 µM
[19]
  TGI: > 100 µM
[20]
  TGI: > 100 µM
[22]
  TGI: > 100 µM
[23]
  TGI: > 100 µM
[24]
  TGI: > 100 µM
[25]
  TGI: > 100 µM
[27]
  TGI: > 100 µM
[28]
  TGI: > 100 µM
[29]
  TGI: > 100 µM
[67]
  TGI: > 100 µM
[30]
  TGI: > 100 µM
[35]
  TGI: > 100 µM
[36]
  TGI: > 100 µM
[37]
  TGI: > 100 µM
[38]
  TGI: > 100 µM
[39]
  TGI: > 100 µM
[42]
  TGI: > 100 µM
[43]
  TGI: > 100 µM
[44]
  TGI: > 100 µM
[46]
  TGI: > 100 µM
[47]
  TGI: > 100 µM
[48]
  TGI: > 100 µM
[49]
  TGI: > 100 µM
[50]
  TGI: > 100 µM
[51]
  TGI: > 100 µM
[52]
  TGI: > 100 µM
[53]
  TGI: > 100 µM
[54]
  TGI: > 100 µM
[55]
  TGI: > 100 µM
[57]
  TGI: 97.5 µM
[59]
  TGI: > 100 µM
[60]
  TGI: > 100 µM
[62]
  TGI: > 100 µM
[63]
  TGI: > 100 µM
[64]
  TGI: > 100 µM
[65]
  TGI: > 100 µM
[66]
  TGI: > 100 µM
